Data reported in publication PMC11189516, “Structure-guided conversion from an anaplastic lymphoma kinase inhibitor into Plasmodium lysyl-tRNA synthetase selective inhibitors” (Communications Biology, 2024).
“And” between values parts separate entries of the source, which are not always exact repeats. Equal entries are not always repeated. Where two headings read alike, the source gives them in different places.

Key:
PfLysRS [1] = target: T1, PfLysRS (Plasmodium falciparum, UniProt Q8IDJ8); assay: Thermal shift assay; type: binding
T1 construct: PfLysRS (77–583) was constructed in the vector pET20b, with a C-terminal 6×His tag; 6xHis (C); made in house; host or cells: E. coli BL21 (DE3)
T1 sequence (Q8IDJ8 entry or part of it): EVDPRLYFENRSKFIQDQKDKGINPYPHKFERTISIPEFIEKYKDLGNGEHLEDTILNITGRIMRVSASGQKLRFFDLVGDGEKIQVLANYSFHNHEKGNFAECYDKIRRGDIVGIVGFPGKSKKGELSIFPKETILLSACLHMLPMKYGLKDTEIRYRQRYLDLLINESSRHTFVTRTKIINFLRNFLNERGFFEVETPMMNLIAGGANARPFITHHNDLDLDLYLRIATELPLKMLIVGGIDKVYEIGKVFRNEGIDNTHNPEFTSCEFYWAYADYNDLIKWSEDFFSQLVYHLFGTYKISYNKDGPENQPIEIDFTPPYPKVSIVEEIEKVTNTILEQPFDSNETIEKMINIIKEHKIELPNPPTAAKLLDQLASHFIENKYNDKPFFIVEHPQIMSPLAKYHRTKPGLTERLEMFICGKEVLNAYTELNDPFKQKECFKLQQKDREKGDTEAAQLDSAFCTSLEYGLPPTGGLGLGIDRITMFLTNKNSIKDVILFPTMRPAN
Method: PfLysRS protein was prepared at 10 μM concentration in a buffer containing 20 mM Tris pH 8.0, 200 mM NaCl, 500 μM L-lysine, and 200 μM Compound. Aliquots (18 µL) were added to a 96-well PCR plate and incubated at ambient temperature for 10 min. SYPRO Orange dye (Sigma) was diluted in the assay buffer containing 20 mM Tris pH 8.0 and 200 mM NaCl to a 40× concentration, and 2 µL of the 40× dye solution was added to the PCR plate to bring the final assay volume to 20 µL. After complete mixing, the final solutions were heated from 25 to 90 °C at a rate of 0.015 °C per sec, and fluorescence signals were monitored by QuantStudio 3 (Applied Biosystems by Thermo Fisher Scientific).

PfLysRS [2] = target: T1, PfLysRS; assay: Surface plasmon resonance (SPR) assay; type: binding; details: immobilized PfLysRS; for Kd: 1 mM L-lysine in running buffer, read-out: dissociation constant (KD)
Method: PfLysRS was chemically immobilized on a Biacore CM5 sensorchip (immobilization level ~20000 resonance unit/RU) at pH 5.0 according to the immobilization kit (GE Healthcare). PfLysRS (1.7 nM) was captured for 90 s at a flow of 30 µL·min^−1. Affnity between PfLysRS and compounds was measured by SPR on a Biacore 8 K (GE Healthcare) at 25 °C with a running buffer (0.02 M phosphate buffer pH 7.4, 2.7 mM KCl, 0.137 M NaCl, 0.05% Tween 20, with 1 mM L-lysine). The association time was 90 s, the dissociation time was 120 s, and the flowrate was 30 µL·min^−1. Kinetic evaluation of the interaction between LysRS and compounds was performed by global fitting of the data to a 1:1 interaction model using Biacore Evaluation Software 3.1 (GE Healthcare).

PfLysRS [3] = target: T1, PfLysRS; assay: ATP hydrolysis assay (Kinase-Glo) on PfLysRS; type: biochemical; details: for LogIC50 (best-fit value): log of nM
Method: (§1) The ATP hydrolysis assays were based on Kinase-Glo luminescent Kit (Promega). The experiment was carried out in Corning 384-well white flat bottom microplates. The buffer in the reaction contains 25 mM Hepes pH 7.4, 140 mM NaCl, 40 mM MgCl2, 30 mM KCl, 1 mM TCEP, 0.1 mg·mL^−1 BSA, and 0.004% Tween-20. The compounds were diluted to different concentrations with a 5-fold gradient.
(§2) For LysRS assays, DMSO was added into negative control wells and L-lysine was removed in positive control wells. 100 nM LysRS in 2.5 μL Hepes buffer was mixed with compounds and incubated for 10 min. Then 5 μL substrate mixture (2 μM ATP, 10 μM L-lysine and 31 nM pyrophosphatase) was added to start the reaction at 37 °C and incubated for 6 h.
(§3) When the reaction reaches the planned time, 10 μL diluted Kinase-Glo reagent (1/50 diluted with a buffer containing 50 mM Tris pH 7.5 and 5% glycerol) was added and incubated for 15 min. Luminescence was measured on the Magellan plate reader (Tecan) and nonlinear regression was performed with Prism (GraphPad).

HsLysRS = target: T2, HsLysRS (Homo sapiens, UniProt Q15046); assay: ATP hydrolysis assay (Kinase-Glo) on HsLysRS; type: biochemical; details: for LogIC50 (best-fit value): log of nM
T2 construct: HsLysRS (70–581) was constructed in the vector pET20b with a C-terminal 6×His tag; 6xHis (C); made in house; host or cells: E. coli (pET20b; 'purified similarly' to PfLysRS, which was expressed in BL21 (DE3))
T2 sequence (Q15046 70-581): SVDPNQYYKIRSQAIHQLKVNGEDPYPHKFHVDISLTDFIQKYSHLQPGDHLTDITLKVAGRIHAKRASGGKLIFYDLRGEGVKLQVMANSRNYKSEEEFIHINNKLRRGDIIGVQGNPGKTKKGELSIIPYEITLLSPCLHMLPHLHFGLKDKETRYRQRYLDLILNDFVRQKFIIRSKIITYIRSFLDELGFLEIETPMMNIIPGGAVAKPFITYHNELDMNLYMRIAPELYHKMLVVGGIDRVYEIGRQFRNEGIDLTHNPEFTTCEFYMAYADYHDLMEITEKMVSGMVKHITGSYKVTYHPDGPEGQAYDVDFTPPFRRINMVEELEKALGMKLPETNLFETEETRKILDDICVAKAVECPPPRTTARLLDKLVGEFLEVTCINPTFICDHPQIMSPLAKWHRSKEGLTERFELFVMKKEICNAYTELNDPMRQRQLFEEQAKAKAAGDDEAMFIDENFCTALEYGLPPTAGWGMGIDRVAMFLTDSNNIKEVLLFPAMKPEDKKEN
Method: as §1, §2, §3

ALK = target: T3, ALK (Homo sapiens, UniProt Q9UM73); assay: ATP hydrolysis assay (Kinase-Glo) on ALK; type: biochemical; details: for LogIC50 (best-fit value): log of nM
T3 construct: The plasmid pCDNA3.1_8×His-tev-ALK (kinase domain, 1068–1410) was constructed; 8xHis (N); TEV site (N); made in house; host or cells: Expi293 cells (transient transfection)
T3 sequence (Q9UM73 1068-1410): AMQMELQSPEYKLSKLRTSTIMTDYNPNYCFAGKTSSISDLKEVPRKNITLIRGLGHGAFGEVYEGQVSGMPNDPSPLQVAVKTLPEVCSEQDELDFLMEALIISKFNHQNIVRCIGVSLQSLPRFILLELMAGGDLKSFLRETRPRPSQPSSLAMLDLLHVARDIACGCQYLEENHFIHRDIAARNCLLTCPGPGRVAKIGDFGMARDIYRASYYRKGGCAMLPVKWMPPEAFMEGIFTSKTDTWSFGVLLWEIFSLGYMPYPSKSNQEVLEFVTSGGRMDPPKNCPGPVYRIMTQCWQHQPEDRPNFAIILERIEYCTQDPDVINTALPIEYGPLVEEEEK
Method: as §1
For ALK assays, DMSO was added into negative control wells. 100 nM ALK in 2.5 μL Hepes buffer was mixed with compounds and incubated for 10 min. Then 5 μL substrate (2 μM ATP) was added to start the reaction at 37 °C and incubated for 6 h.
as §3

[4] = Solubility noted in the cytotoxicity assay; type: physicochemical; details: highest concentration limited to 100 μM in cell medium
Method: Cell viability was analyzed by Cell Counting Kit-8 (CCK8, ApexBio) according to the manufacturer’s protocols. Cells were seeded and cultured at a density of 2.5 × 10^3 cells per well in 100 μL medium in 96-well microplates (Corning). Then, the cells were treated with different concentrations of compound (0, 1 μM, 3 μM, 10 μM, 100 μM, 300 μM). […] After treatment for 72 h, 10 μL of CCK-8 reagent was added to each well and then cultured for 4 h. All experiments were performed in pentaplicate. The absorbance was analyzed at 450 nm using a microplate reader (Tecan) using medium without cells as blanks. Data was processed using GraphPad Prism 9.

[5] = +Lysine, sheet Figure 6B, in °C (unit assumed)
[6] = PfLysRS, source data, read-out: IC50 (best-fit value)
[7] = HsLysRS, Log(Concentration)/nM 2.505, single repeats
[8] = HsLysRS, Log(Concentration)/nM 3.204, single repeats
[9] = HsLysRS, Log(Concentration)/nM 3.903, single repeats
[10] = HsLysRS, Log(Concentration)/nM 4.602, single repeats
[11] = HsLysRS, Log(Concentration)/nM 5.301, single repeats
[12] = HsLysRS, source data, read-out: IC50 (best-fit value)
[13] = ALK, source data, read-out: IC50 (best-fit value)

Tm of PfLysRS, Average (PfLysRS [1]; +Lysine) | Tm of PfLysRS, Average (PfLysRS [1]; -Lysine) | ΔTm at 200 µM (PfLysRS [1]; in the absence of L-lysine) | ΔTm at 200 µM (PfLysRS [1]; in the presence of L-lysine) | koff (PfLysRS [2]) | kon (PfLysRS [2]) | Kd (PfLysRS [2]) | HillSlope (best-fit value) (PfLysRS [3]; PfLysRS) | LogIC50 (best-fit value) (PfLysRS [3]; PfLysRS) | IC50 (PfLysRS [3]; [6]) | IC50 (PfLysRS [3]; read-out: IC50 against PfLysRS) | HillSlope (best-fit value) (HsLysRS; HsLysRS) | % Inhibition (HsLysRS; [7]) | % Inhibition (HsLysRS; [8]) | % Inhibition (HsLysRS; [9]) | % Inhibition (HsLysRS; [10]) | % Inhibition (HsLysRS; [11]) | LogIC50 (best-fit value) (HsLysRS; HsLysRS) | SMILES | Tm of PfLysRS, single repeat (PfLysRS [1]; +Lysine) | Tm of PfLysRS, single repeat (PfLysRS [1]; -Lysine) | also measured
54.438 °C | 53.158 °C | 11.7 °C | 11.8 °C | 0.0144 s⁻¹ | 907000 M/s | 15.9 nM | 1.442 | 2.296 | 198 nM | 198 nM | 0.3683 | 19.3% and 12.84% and 21.95% | 37.3% and 27.64% and 28.87% | 26.36% and 22.16% and 26.38% | 50.64% and 39% and 42.59% | 74.45% and 64.99% and 63.03% | 5.258 | COc1ccc(OC)c(Nc2ncnc(Nc3ccccc3S(=O)(=O)C(C)C)n2)c1 [Compound 36] | 54.731 °C and 54.237 °C and 54.854 °C and 53.929 °C | 53.374 °C and 52.819 °C and 53.251 °C and 53.189 °C | △Tm of PfLysRS (PfLysRS [1]; +Lysine, sheet Figure 6B): 10.644; Tm of PfLysRS, Average (PfLysRS [1]; [5]): 55.664; Tm of PfLysRS, single repeat (PfLysRS [1]; [5]): 55.710 and 55.464 and 56.018; % Inhibition (HsLysRS; HsLysRS, Log(Concentration)/nM 1.806, single repeats): 3.227% and 2.137% and -5.363%; IC50 (HsLysRS; [12]): 181000 nM; IC50 (HsLysRS; read-out: IC50 against HsLysRS): > 181000 nM; HillSlope (best-fit value) (ALK; ALK): 0.6864; LogIC50 (best-fit value) (ALK; ALK): 4.281; IC50 (ALK; [13]): 19100 nM; IC50 (ALK; read-out: IC50 against ALK): > 19100 nM; solubility [4]: poor solubility
52.704 °C | 50.586 °C | 7.6 °C | ~9 °C | 0.0137 s⁻¹ | 218000 M/s | 62.8 nM | 0.6107 | 2.959 | 910 nM | 910 nM | 2.263 | 4.732% and 9.196% and 7.614% | 10.26% and 9.294% and 11.16% | 5.367% and 4.771% and 4.914% | 24.12% and 17.72% and 16.76% | 34.85% and 34.96% and 31.62% | 5.476 | COc1ccccc1Nc1ncnc(Nc2ccccc2S(=O)(=O)C(C)C)n1 [Compound 38] | 52.703 °C and 52.673 °C and 52.642 °C and 52.796 °C | 50.911 °C and 50.756 °C and 50.045 °C and 50.632 °C | % Inhibition (HsLysRS; HsLysRS, Log(Concentration)/nM 6.000, single repeats): 100.3% and 101% and 91.99%; IC50 (HsLysRS; [12]): 299000 nM; selectivity of PfLysRS over human LysRS (HsLysRS) (HsLysRS; in vitro): 328 times; IC50 (HsLysRS; read-out: IC50 against HsLysRS): 299000 ± 34000 nM; HillSlope (best-fit value) (ALK; ALK): 1.505; LogIC50 (best-fit value) (ALK; ALK): 2.726; IC50 (ALK; [13]): 532 nM; IC50 (ALK; read-out: IC50 against ALK): 532 nM; solubility [4]: poor solubility
